Experiments:
[1] = system: foot tapping in gerbils induced by central injection of an NK1 agonist; assay: Gerbil foot-tapping assay; assay type: in vivo, Mongolian gerbils; settings: i.v.
Excerpt: Gerbil Foot-Tapping Assay CNS penetrant NK-1 receptor antagonists for use in the present invention can be identified by their ability to inhibit foot tapping in gerbils induced by anxiogenic agents (such as pentagastrin) or central infusion of NK-1 receptor agonists such as GR73632, or caused by aversive stimulation such as foot shock or single housing, based on the method of Rupniak & Williams, Eur. J. Pharmacol., 1994, 265, 179. Male or female Mongolian gerbils (35-70 g) are anaesthetised by inhalation of an isoflurane/oxygen mixture to permit exposure of the jugular vein in order to permit administration of test compounds or vehicle in an injection volume of 5 ml/kg i.v. Alternatively, test compounds may be administered orally or by subcutaneous or intraperitoneal routes. The wound is closed and a second skin incision is made in the midline of the scalp to expose the skull. […] The duration and/or intensity of hind foot tapping is then recorded continuously for 5 minutes. Alternatively, the ability of test compounds to inhibit foot tapping evoked by aversive stimulation, such as foot shock or single housing, may be studied using a similar method of quantification.

[2] = system: cisplatin-induced emesis in ferrets; assay: Ferret emesis assay; assay type: in vivo; settings: p.o.
Method: Ferret Emesis Assay Individually housed male ferrets (1.0-2.5 kg) are dosed orally by gavage with test compound. Ten minutes later they are fed with approximately 100 g of tinned cat food. At 60 minutes following oral dosing, cisplatin (10 mg(kg) is given i.v. via a jugular vein catheter inserted under a brief period of halothane anaesthesia. The catheter is then removed, the jugular vein ligated and the skin incision closed. The ferrets recover rapidly from the anaesthetic and are mobile within 10-20 minutes. The animals are observed continuously during recovery from the anaesthetic and for 4 hours following the cisplatin injection, after which time the animals are killed humanely. The numbers of retches and vomits occurring during the 4 hours after cisplatin administration are recorded by trained observers.

[3] = system: distress vocalisations in guinea-pig pups; assay: Separation-induced vocalisation assay; assay type: in vivo, guinea-pigs; settings: p.o.
Excerpt: Separation-Induced Vocalisation Assay Male and female guinea-pigs pups are housed in family groups with their mothers and littermates throughout the study. Experiments are commenced […] when the pups are 2 weeks old. Before entering an experiment, the pups are screened to ensure that a vigorous vocalisation response is reproducibly elicited following maternal separation. The pups are placed individually in an observation cage (55 cm×39 cm×19 cm) in a room physically isolated from the home cage for 15 minutes and the duration of vocalisation during this baseline period is recorded. Only animals which vocalise for longer than 5 minutes are employed for drug challenge studies (approximately 50% of available pups may fail to reach this criterion). On test days each pup receives an oral dose or a s.c. or i.p. injection of test compound or vehicle and is then immediately returned to the home cage with its mother and siblings for 30 minutes to 60 minutes (or for up to 4 hours following an oral dose, dependant upon the oral pharmacokinetics of the test compound) before social isolation for 15 minutes as described above. The duration of vocalisation on drug treatment days is expressed as a percentage of the pre-treatment baseline value for each animal. The same subjects are retested once weekly for up to 6 weeks. Between 6 and 8 animals receive each test compound at each dose tested. […]

[4] = system: women with premenstrual syndrome; assay: Double-blind, placebo-controlled study of mood and appetite disturbances associated with premenstrual syndrome; assay type: in vivo; settings: 30 mg/day, compared with placebo, Hamilton Depression Scale and PMS/LLPD Symptom Rating Scale
Method: Double-Blind, Placebo-Controlled Study to Determine the Effect of a Substance P Antagonist on Mood and Appetite Disturbances Associated with Premenstrual Syndrome in Women.
Approximately twenty women receive either the substance P receptor antagonist 2-(R)-(1-(R)-(3,5-bis(trifluoromethyl)phenyl)ethoxy)-3-(S)-(4-fluorophenyl)-4-(3-(5-oxo-1H,4H-1,2,4-triazolo)methyl-morpholine (30 mg/day) or a placebo starting approximately two weeks prior to their expected menstrual period. Each subject participates in 6 randomized test periods; in 3 of the test periods, each is given the substance P antagonist and in the other 3 test periods, is given a placebo. Mood is assessed 1-3 days before the onset of menses, using the Hamilton Depression Scale and the PMS/LLPD Symptom Rating Scale, for mood and appetite symptoms. Hamilton, N., Journal of Neurosurgery and Psychiatry, 23:56-62 (1960); Steiner, M. et al., Acta Psychiatrica Scandinavia, 62:177-190 (1980). Food intake is measured through the use of self-reports (when subjects were out-patients), and directly (while subjects were inpatients), during one drug and one placebo period; subjects also are weighed. The results between the test periods are compared and the results for each subject are evaluated.

C[C@@H](O[C@H]1OCCN(Cc2n[nH]c(=O)[nH]2)[C@H]1c1ccc(F)cc1)c1cc(C(F)(F)F)cc(C(F)(F)F)c1 [2-(R)-(1-(R)-(3,5-bis(trifluoromethyl)-phenyl)-ethoxy)-3-(S)-(4-fluorophenyl)-4-(3-(5-oxo-1H,4H-1,2,4-triazolo)methyl)-morpholine]
gerbil foot-tapping (5 mins.): IC50 ([1]; 5 mins.): IC50 = 0.36 mg/kg i.v.
gerbil foot-tapping (24 hrs.): IC50 ([1]; 24 hrs.): IC50 = 0.33 mg/kg i.v.
ferret emesis: ID90 [2]: ID90 = <3 mg/kg p.o.
guinea-pig vocalisation (4 hr. pre-treatment): ID50 [3]: ID50 = 0.73 mg/kg p.o.
effect in decreasing depression and other negative mood states [4]: positive effect with respect to placebo

From patent US20020142942A1, “Method for treating premenstrual or late luteal phase syndrome” (Merck & Co. Inc., priority 1997, published 2002)
